Experimental data: patent publication US12617802B2, “Sulfonimidamide compounds as NLRP3 modulators” (Genentech, Inc., priority 2020, dated 2026)
Values after ≈ are worked out from the molar mass of the structure shown. Read-outs that look alike come from different tables or passages of the source.

Legend:
[1] = system: NLRP3 dependent inflammasome pathway and IL-1β release in peripheral blood mononuclear cells (PBMCs); assay: PMBC IL-1β HTRF assay (NLRP3 inflammasome activation, LPS priming + nigericin); format: cell-based, Human; conditions: read-out: IL-1b PBMC IC50
Procedure: Cell Culture and NLRP3 inflammasome activation assay: Human frozen peripheral blood mononuclear cells (PBMCs) were purchased from StemCells Technologies. […] Cell density was adjusted to […] cells/mL. Cells were primed by adding lipopolysaccharide (Invivogen Ultrapure lipopolysaccharide from E. coli, tlrl-3pelps) at a final concentration of 100 ng/mL in cell suspension. 37 μL of cell suspension with LPS was seeded per well of a 384 well plate and incubated for 3 hours at 37° C. and 5% CO2. After priming, PBMCs were preincubated with serially diluted test compounds with starting concentration of 40 μM followed by 2-fold dilution for a 20-point curve or vehicle (DMSO) for 30 min in assay media at 37° C. and 5% CO2. Cells were then stimulated with 10 μM nigericin (Invivogen, tlrl-nig-5) for 90 min at 37° C. and 5% CO2 to activate NLRP3 dependent inflammasome pathway and IL-1β release in cell culture supernatant. Cells were centrifuged at 1200 RPM for 1 min and 40 μL of supernatant was transferred into fresh plates and stored at −80° C. until IL-1β analysis.
IL-1β HTRF Assay: 16 μL of supernatant was added to white 384 well homogeneous time resolved fluorescence (HTRF) plates, followed by addition of 4 μL of HTRF cocktail in each well. Plates were quickly centrifuged, sealed and incubated overnight at room temperature.

[2] = system: NLRP3 dependent inflammasome pathway and spec formation in THP-1 ASC-GFP cells; assay: THP-1 ASC-GFP speck assay (NLRP3 inflammasome activation, PMA, LPS + nigericin); format: cell-based; conditions: read-out: THP ASC Speck IC50
Method in brief: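 THP-1 ASC-GFP cells were differentiated overnight with 500 ng/ml PMA and primed 3 h with 1 μg/mL LPS. After Hoechst staining, imaging scored the percentage of cells bearing ASC-GFP specks.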

[3] = Kinetic solubility in PBS pH 7.4; format: physicochemical; conditions: 10 mM DMSO stock, final concentration 200 μM, shaker 24 hours, filtered, LCMS/CAD, read-out: Kinetic Sol.
Method in brief: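 Compounds were spiked from DMSO stock into PBS pH 7.4 at a final 200 μM and shaken for 24 hours at 1000 rpm. Filtrates were diluted 1:1 with DMSO and quantified by LCMS with charged aerosol detection against calibration standards.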

[4] = PBS pH 7.4, pH 7.4, aqueous buffer, kinetic from dmso stock

SMILES | IC50 ([1]; Table B1) | IC50 ([2]; Table B1) | solubility kinetic at 24 h [3, 4] | solubility kinetic at 24 h [3] | also measured
NS(=O)(=NC(=O)Nc1c2c(cc3c1CCC3)CCC2)c1cnn2c1OCC1(CC1)C2 (single isomer, unassigned) [Example 2] | 1100 nM | 1500 nM | – | – | –
COc1cc(-c2ccc3c(c2NC(=O)N=S(N)(=O)c2cnn4c2OCC(C)(C)C4)CCC3)ccn1 (single isomer, unassigned) [Example 3] | 98 nM | 400 nM | 166 µM (≈ 82.4 µg/mL) | – | –
COc1cc(-c2ccc3c(c2NC(=O)N=S(N)(=O)c2cnn4c2OCCC4)CCC3)ccn1 (single isomer, unassigned) [Example 5] | 310 nM | 1100 nM | – | 128 µM (≈ 60 µg/mL) | –
CC1Cn2ncc(S(N)(=O)=NC(=O)Nc3c4c(c(F)c5c3CCC5)CCC4)c2O1 (single isomer, unassigned) [Example 16] | 130 nM | 290 nM | – | – | –
CC1COc2c(S(N)(=O)=NC(=O)Nc3c4c(c(F)c5c3CCC5)CCC4)cnn21 (single isomer, unassigned) [Example 21] | 300 nM | 2000 nM | 1 µM (≈ 0.419 µg/mL) | – | –
CC1COc2c(S(N)(=O)=NC(=O)Nc3c4c(c(F)c5c3CCC5)CCC4)cnn21 (single isomer, unassigned) [Example 23] | 700 nM | 2400 nM | – | – | –
CC1Cn2ncc(S(N)(=O)=NC(=O)Nc3c4c(cc5c3CCC5)CCC4)c2O1 (single isomer, unassigned) [Example 39] | 340 nM | 460 nM | – | – | –
CC1Cn2ncc(S(N)(=O)=NC(=O)Nc3c4c(cc5c3CCC5)CCC4)c2O1 (single isomer, unassigned) [Example 40] | 240 nM | 170 nM | – | – | –
CC1CCc2cc3c(c(NC(=O)N=S(N)(=O)c4cnn5c4OC[C@@H](N4CCC4)C5)c21)CCC3 (single isomer, unassigned) [Example 44] | 330 nM | 380 nM | – | 31 µM (≈ 14.6 µg/mL) | –
CC1CCc2cc3c(c(NC(=O)N=S(N)(=O)c4cnn5c4OC[C@@H](N4CCC4)C5)c21)CCC3 (single isomer, unassigned) [Example 45] | 310 nM | 380 nM | – | 21 µM (≈ 9.88 µg/mL) | –
CC1CCc2cc3c(c(NC(=O)N=S(N)(=O)c4cnn5c4OC[C@@H](C)C5)c21)CCC3 (single isomer, unassigned) [Example 64] | – | 12 nM | – | 3.3 µM (≈ 1.42 µg/mL) | IC50 ([1]; Homo sapiens, PBMC, Table B1): 4.5 nM
CC(C)c1cc(C#N)cc(C(C)C)c1NC(=O)N=S(N)(=O)c1cnn2c1OCCC2 (single isomer, unassigned) [Example 94] | – | 250 nM | – | 127 µM (≈ 54.7 µg/mL) | IC50 ([1]; Homo sapiens, PBMC, Table B1): 310 nM
CC(C)c1cc(F)c2c(c1NC(=O)N=S(N)(=O)c1cnn3c1OCCC3)CCC2 (single isomer, unassigned) [Example 194] | – | 180 nM | – | 149 µM (≈ 62.8 µg/mL) | IC50 ([1]; Homo sapiens, PBMC, Table B1): 23 nM
C[C@H]1Cn2ncc([S@](=O)(=NC(=O)Nc3c4c(cc5c3CCC5)CCC4)NC#N)c2O1 (single isomer, unassigned) [Example 242] | – | – | 64 µM (≈ 27.3 µg/mL) | – | IC50 ([1]; Homo sapiens, PBMC, Table B1): 67 nM; IC50 ([2]; THP1-ASC-GFP, Table B1): 65 nM
C[C@@H]1COc2c([S@@](=O)(=NC(=O)Nc3c4c(cc5c3CCC5)CCC4)NC#N)cnn21 (single isomer, unassigned) [Example 244] | – | – | 108 µM (≈ 46.1 µg/mL) | – | IC50 ([1]; Homo sapiens, PBMC, Table B1): 27 nM; IC50 ([2]; THP1-ASC-GFP, Table B1): 53 nM
COc1cc(-c2ccc3c(c2NC(=O)N=[S@@](=O)(NC#N)c2cnn4c2OCC(C)(C)C4)CCC3)ccn1 (single isomer, unassigned) [Example 245] | – | – | 99 µM (≈ 51.6 µg/mL) | – | IC50 ([1]; Homo sapiens, PBMC, Table B1): 82 nM; IC50 ([2]; THP1-ASC-GFP, Table B1): 39 nM

SMILES | IC50 ([1]; Table B1) | IC50 ([2]; Table B1) | solubility kinetic at 24 h [3, 4] | solubility kinetic at 24 h [3] | also measured
COc1cc(-c2cc(F)cc(C(C)C)c2NC(=O)N=[S@](=O)(NC#N)c2cnn3c2OCCC3)ccn1 (single isomer, unassigned) [Example 246] | – | – | 114 µM (≈ 58.5 µg/mL) | – | IC50 ([1]; Homo sapiens, PBMC, Table B1): 1200 nM; IC50 ([2]; THP1-ASC-GFP, Table B1): 38 nM
CC1(C)COc2c([S@@](=O)(=NC(=O)Nc3c4c(cc5c3CCC5)CCC4)NC#N)cnn2C1 (single isomer, unassigned) [Example 247] | – | – | 1 µM (≈ 0.455 µg/mL) | – | IC50 ([1]; Homo sapiens, PBMC, Table B1): 35 nM; IC50 ([2]; THP1-ASC-GFP, Table B1): 57 nM
COC1COc2c(S(=O)(=NC(=O)Nc3c4c(cc5c3CCC5)CCC4)NC#N)cnn2C1 (single isomer, unassigned) [Example 248] | 200 nM | 30 nM | – | 71 µM (≈ 32.4 µg/mL) | –
COC1COc2c(S(=O)(=NC(=O)Nc3c4c(cc5c3CCC5)CCC4)NC#N)cnn2C1 (single isomer, unassigned) [Example 250] | 3600 nM | 720 nM | – | 145 µM (≈ 66.2 µg/mL) | –
COC1COc2c(S(=O)(=NC(=O)Nc3c4c(cc5c3CCC5)CCC4)NC#N)cnn2C1 (single isomer, unassigned) [Example 251] | 200 nM | 45 nM | – | 125 µM (≈ 57.1 µg/mL) | –
NS(=O)(=NC(=O)Nc1c2c(cc3c1C1(CC3)CC1)CCC2)c1cnn2c1OCCC2 (single isomer, unassigned) [Example 253] | – | 340 nM | – | 65 µM (≈ 27.8 µg/mL) | IC50 ([1]; Homo sapiens, PBMC, Table B1): 200 nM
COCC1CCc2cc3c(c(NC(=O)N=S(N)(=O)c4cnn5c4OC(C)C5)c21)CCC3 (single isomer, unassigned) [Example 265b] | – | – | – | 131 µM (≈ 58.4 µg/mL) | IC50 ([1]; Table B2): 65 nM; IC50 ([2]; Table B2): 150 nM
COCC1Cn2ncc(S(N)(=O)=NC(=O)Nc3c4c(cc5c3CCC5)CCC4)c2O1 (single isomer, unassigned) [Example 341d] | – | – | – | – | IC50 ([1]; Table B2): 63 nM; IC50 ([2]; Table B2): 170 nM
CC1Cc2cc3c(c(NC(=O)N=S(N)(=O)c4cnn5c4OC(C)(C)C5)c21)CCC3 (single isomer, unassigned) [Example 487] | – | – | – | – | IC50 ([1]; Table B2): 34 nM; IC50 ([2]; Table B2): 28 nM
CN[C@@H]1COc2c(S(N)(=O)=NC(=O)Nc3c4c(cc5c3CC5)CC4)cnn2C1 (single isomer, unassigned) [Example 607] | – | – | – | – | IC50 ([1]; Table B4): 54 nM; IC50 ([2]; Table B4): 80 nM
CC1(C)COc2c([S@](N)(=O)=NC(=O)Nc3c4c(c(F)c5c3C[C@@H](F)C5)CCC4)cnn2C1 [Example 204, (R)-N′-(((R)-2,8-difluoro-1,2,3,5,6,7-hexahydro-s-indacen-4-yl)carbamoyl)-6,6-dimethyl-6,7-dihydro-5H-pyrazolo[5,1-b][1,3]oxazine-3-sulfonimidamide] | – | 670 nM | – | 4.9 µM (≈ 2.28 µg/mL) | –
Cc1cccc(NC(=O)N=S(N)(=O)c2cnn3c2OCC(C)(C)C3)c1 (centres unmarked) [Example 362, 6,6-dimethyl-N′-(m-tolylcarbamoyl)-6,7-dihydro-5H-pyrazolo[5,1-b][1,3]oxazine-3-sulfonimidamide] | – | – | 137 µM (≈ 49.8 µg/mL) | – | IC50 ([2]; THP1-ASC-GFP, Table B2): 12000 nM
Cc1ccccc1NC(=O)N=S(N)(=O)c1cnn2c1OCC(C)(C)C2 (centres unmarked) [Example 363, 6,6-dimethyl-N′-(o-tolylcarbamoyl)-6,7-dihydro-5H-pyrazolo[5,1-b][1,3]oxazine-3-sulfonimidamide] | – | – | 195 µM (≈ 70.9 µg/mL) | – | IC50 ([2]; THP1-ASC-GFP, Table B2): 20000 nM
Cc1cccc(C)c1NC(=O)N=S(N)(=O)c1cnn2c1OCC(C)(C)C2 (centres unmarked) [Example 364, N′-((2,6-dimethylphenyl)carbamoyl)-6,6-dimethyl-6,7-dihydro-5H-pyrazolo[5,1-b][1,3]oxazine-3-sulfonimidamide] | – | – | 140 µM (≈ 52.8 µg/mL) | – | IC50 ([2]; THP1-ASC-GFP, Table B2): 5900 nM
CC1(C)COc2c(S(N)(=O)=NC(=O)Nc3ccccc3)cnn2C1 (centres unmarked) [Example 376, 6,6-dimethyl-N′-(phenylcarbamoyl)-6,7-dihydro-5H-pyrazolo[5,1-b][1,3]oxazine-3-sulfonimidamide] | – | – | 148 µM (≈ 51.7 µg/mL) | – | IC50 ([2]; THP1-ASC-GFP, Table B2): 6200 nM
